# Laboratory results taken from patent US10874640B2 (GILEAD SCIENCES, INC., priority 2016, dated 2020).
# Test system: HBV AD38 viral particles in HepG2 cell line overexpressing NTCP
# Test: HBV DNA Quantification Assay
# Assay type: cell-based
# Details: Hepatitis B virus, HepG2, 120 h, HBV AD38-infected HepG2-NTCP cells, 5 days incubation, HBV DNA in culture supernatant (QuantiGene 2.0); geometric mean of a minimum of four determinations
# Procedure: A HepG2 cell line overexpressing the HBV virus attachment receptor sodium-taurocholate cotransporting polypeptide (NTCP) was grown to confluency in DMEM growth medium, Dulbecco's Modified Eagle Medium without sodium pyruvate (Life Technologies, Rockville, Md.) supplemented with 10% FBS (Thermo Scientific, Waltham, Md.), 1% penicillin/streptomycin (Life Technologies, Rockville, Md.) and 2 mM L-glutamine (Life Technologies, Rockville, Md.) in T175 flasks. Cells were infected with HBV AD38 viral particles (Texcell, Frederick, USA) at 4000 genome equivalents per cell. […] The assay plates were incubated for a period of 5 days and the antiviral activity of the test compounds were assayed by detecting the presence of HBV DNA in the culture supernatant using the QuantiGene™ 2.0 nucleic acid quantification kit (Affymetrix, Santa Clara, Calif.).
# The culture supernatant was harvested and treated with lysis buffer containing Proteinase K (Affymetrix, Santa Clara, Calif.). […] After the final wash step, the alkaline phosphatase substrate (Luminol APS5) was added and the resulting luminescence signal was read in an EnVision Multilabel Plate Reader (PerkinElmer, Santa Clara, Calif.). […]
row,Structure (SMILES),EC50 [nM]
1,"Cc1c(C(=O)C(=O)NC2(c3c[nH]nn3)CC(F)(F)C2)c2n(c1C(=O)Nc1ccnc(C(F)F)c1F)[C@@H]1C[C@@H]1C2 [Example 80, (1aR,6aR)-5-(2-((3,3-difluoro-1-(1H-1,2,3-triazol-4-yl)cyclobutyl)amino)-2-oxoacetyl)-N-(2-(difluoromethyl)-3-fluoropyridin-4-yl)-4-methyl-1,1a,6,6a-tetrahydrocyclopropa[b]pyrrolizine-3-carboxamide]",8.7

# Test system: not listed separately
# Test: Hepatic Stability Assay
# Assay type: in vitro ADME
# Design: dose or concentration left out as unconfirmed
# Details: pooled cryopreserved hepatocytes; read-out: t½
# Procedure: The metabolic stability of certain compounds disclosed herein was assessed in vitro in pooled cryopreserved hepatocytes using the in vitro half-life method. Incubations were at 37° C. and final concentrations in the incubations were 1×10^6 cells/mL and […] test concentration of the compound. Aliquots were sequentially removed after 0, 1, 3 and 6 hours and analyzed by LC-MS/MS. In vitro half-life was determined by measuring the rate of disappearance of the compound and then scaled to predicted hepatic clearance using the well-stirred model. […] As such, compounds having a value of 39.5 may have a half live that exceeds 39.5 hours.
row,Structure (SMILES),half-life [h]
1,"CNC(=O)C1(NC(=O)C(=O)c2c(C)c(C(=O)Nc3ccc(F)c(C#N)c3)n3c2CCC3)CC(F)(F)C1 [Example 35, N-(3-cyano-4-fluorophenyl)-7-(2-((3,3-difluoro-1-(methylcarbamoyl)cyclobutyl)amino)-2-oxoacetyl)-6-methyl-2,3-dihydro-1H-pyrrolizine-5-carboxamide]",≥ 39.5
2,"CNC(=O)C1(NC(=O)C(=O)c2c(C)c(C(=O)Nc3ccc(F)c(F)c3)n3c2CCC3)CC(F)(F)C1 [Example 44, 7-(2-((3,3-difluoro-1-(methylcarbamoyl)cyclobutyl)amino)-2-oxoacetyl)-N-(3,4-difluorophenyl)-6-methyl-2,3-dihydro-1H-pyrrolizine-5-carboxamide]",≥ 39.5
3,"CNC(=O)C1(NC(=O)C(=O)c2c(C)c(C(=O)Nc3ccc(F)cc3)n3c2CCC3)CC(F)(F)C1 [Example 47, 7-(2-((3,3-difluoro-1-(methylcarbamoyl)cyclobutyl)amino)-2-oxoacetyl)-N-(4-fluorophenyl)-6-methyl-2,3-dihydro-1H-pyrrolizine-5-carboxamide]",≥ 39.5
4,"CNC(=O)C1(NC(=O)C(=O)c2c(C)c(C(=O)Nc3ccc(F)c(F)c3)n3c2C[C@@H](F)C3)CC(F)(F)C1 [Example 49, (R)-7-(2-((3,3-difluoro-1-(methylcarbamoyl)cyclobutyl)amino)-2-oxoacetyl)-N-(3,4-difluorophenyl)-2-fluoro-6-methyl-2,3-dihydro-1H-pyrrolizine-5-carboxamide]",≥ 39.5
5,"Cc1c(C(=O)C(=O)NC2(c3c[nH]nn3)CC2)c2n(c1C(=O)Nc1ccnc(C(F)F)c1)[C@@H]1C[C@@H]1C2 [Example 56, (1aR,6aR)-5-(2-((1-(1H-1,2,3-triazol-4-yl)cyclopropyl)amino)-2-oxoacetyl)-N-(2-(difluoromethyl)pyridin-4-yl)-4-methyl-1,1a,6,6a-tetrahydrocyclopropa[b]pyrrolizine-3-carboxamide]",≥ 39.5
6,"Cc1c(C(=O)C(=O)NC2(c3c[nH]nn3)CC2)c2n(c1C(=O)Nc1ccc(F)cc1)CCC2 [Example 70, 7-(2-((1-(1H-1,2,3-triazol-4-yl)cyclopropyl)amino)-2-oxoacetyl)-N-(4-fluorophenyl)-6-methyl-2,3-dihydro-1H-pyrrolizine-5-carboxamide]",≥ 39.5
7,"Cc1c(C(=O)C(=O)NC2(C)CS(=O)(=O)C2)c2n(c1C(=O)Nc1ccc(F)c(C#N)c1)[C@@H]1C[C@@H]1C2 [Example 72, (1aR,6aR)—N-(3-cyano-4-fluorophenyl)-4-methyl-5-(2-((3-methyl-1,1-dioxidothietan-3-yl)amino)-2-oxoacetyl)-1,1a,6,6a-tetrahydrocyclopropa[b]pyrrolizine-3-carboxamide]",≥ 39.5
8,"CNC(=O)C1(NC(=O)C(=O)c2c(C)c(C(=O)Nc3cccc(C(F)F)c3)n3c2CCC3)CC(F)(F)C1 [Example 115, 7-(2-((3,3-difluoro-1-(methylcarbamoyl)cyclobutyl)amino)-2-oxoacetyl)-N-(3-(difluoromethyl)phenyl)-6-methyl-2,3-dihydro-1H-pyrrolizine-5-carboxamide]",≥ 39.5
9,"CNC(=O)C1(NC(=O)C(=O)c2c(C)c(C(=O)Nc3ccc(F)c(C(F)F)c3)n3c2CCC3)CC(F)(F)C1 [Example 116, 7-(2-((3,3-difluoro-1-(methylcarbamoyl)cyclobutyl)amino)-2-oxoacetyl)-N-(3-(difluoromethyl)-4-fluorophenyl)-6-methyl-2,3-dihydro-1H-pyrrolizine-5-carboxamide]",≥ 39.5
10,Cc1c(C(=O)C(=O)N[C@](C)(C(N)=O)C(F)(F)F)c2n(c1C(=O)Nc1ccc(F)c(F)c1)CCC2 [Example 135],≥ 39.5
11,Cc1c(C(=O)C(=O)N[C@@](C)(C(N)=O)C(F)(F)F)c2n(c1C(=O)Nc1ccc(F)c(F)c1)CCC2 [Example 136],≥ 39.5
